Source: patent US7517874B2 (priority 2007, dated 2009)
Like-named read-outs stand apart in the source and are kept apart here.

How the values were obtained:
rat CB2 receptor (rCB2) = molecular target: T1, rat CB2 receptor (rCB2) (Rattus norvegicus, UniProt Q9QZN9); assay: cell-based; assay type: cell-based; conditions: for +/− RCB2: agonist or inverse agonist at rCB2
T1 sequence (Q9QZN9 1-360): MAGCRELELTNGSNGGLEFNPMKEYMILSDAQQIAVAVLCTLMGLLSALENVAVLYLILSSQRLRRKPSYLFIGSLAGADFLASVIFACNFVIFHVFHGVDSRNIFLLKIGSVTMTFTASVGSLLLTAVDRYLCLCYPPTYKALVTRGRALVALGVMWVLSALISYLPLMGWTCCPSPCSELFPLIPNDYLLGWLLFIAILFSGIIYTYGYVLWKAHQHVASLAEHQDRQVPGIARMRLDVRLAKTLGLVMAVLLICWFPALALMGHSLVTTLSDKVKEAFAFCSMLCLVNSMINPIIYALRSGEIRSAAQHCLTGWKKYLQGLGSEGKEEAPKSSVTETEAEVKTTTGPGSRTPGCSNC
How it was run: (§1)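 Agonism or inverse agonism was assessed as change in intracellular cAMP in CHO-K1 cells expressing human CB1 or rat CB2 (genomic DNA, pcDNA3.1).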

[1] = molecular target: human CB1 receptor (hCB1) (Homo sapiens, UniProt P21554); assay: cell-based; assay type: cell-based; conditions: for +/− HCB1: agonist or inverse agonist at hCB1
Sequence of human CB1 receptor (hCB1) (P21554 whole entry): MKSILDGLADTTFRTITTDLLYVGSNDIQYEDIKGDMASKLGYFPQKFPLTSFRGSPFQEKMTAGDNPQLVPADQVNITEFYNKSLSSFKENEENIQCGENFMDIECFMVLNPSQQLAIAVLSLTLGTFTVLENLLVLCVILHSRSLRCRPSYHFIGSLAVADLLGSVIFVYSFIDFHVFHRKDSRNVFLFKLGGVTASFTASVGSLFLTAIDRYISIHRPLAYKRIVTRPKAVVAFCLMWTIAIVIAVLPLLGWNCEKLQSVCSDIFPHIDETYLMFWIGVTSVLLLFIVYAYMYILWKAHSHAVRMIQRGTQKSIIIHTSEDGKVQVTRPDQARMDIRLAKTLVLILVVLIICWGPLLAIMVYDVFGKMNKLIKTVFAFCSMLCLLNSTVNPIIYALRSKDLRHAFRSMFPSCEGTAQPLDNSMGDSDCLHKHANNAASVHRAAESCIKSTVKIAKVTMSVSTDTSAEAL
How it was run: as §1

[2] = groups >100 nM-10 μM and >10 μM, cAMP, CHO-K1 hCB1, read-out: EC50 HCB1

For `CCCCCc1nc(C(=O)N[C@H](C(=O)NC)C(C)(C)C)c2n1CCCN(C)C2` [Compound 484, (S)-N-(3,3-dimethyl-1-(methylamino)-1-oxobutan-2-yl)-8-methyl-3-pentyl-6,7,8,9-tetrahydro-5H-imidazo[1,5-a][1,4]diazepine-1-carboxamide], the EC50 (rat CB2 receptor (rCB2)) was > 10 µM and the EC50 [1] was > 10000 nM.

For `CNC(=O)[C@@H](NC(=O)c1nc(-c2ccc(OC)c(F)c2)n2c1CN(C)CCC2)C(C)(C)C` [Compound 404, (S)-N-(3,3-dimethyl-1-(methylamino)-1-oxobutan-2-yl)-3-(3-fluoro-4-methoxyphenyl)-8-methyl-6,7,8,9-tetrahydro-5H-imidazo[1,5-a][1,4]diazepine-1-carboxamide], the EC50 (rat CB2 receptor (rCB2)) was > 10 µM and the EC50 [1] was > 10000 nM.

With `CNC(=O)[C@@H](NC(=O)c1nc(/C=C/CN2CCCCC2)n2c1CN(C)CCC2)C(C)(C)C` [Compound 510, (S,E)-N-(3,3-dimethyl-1-(methylamino)-1-oxobutan-2-yl)-8-methyl-3-(3-(piperidin-1-yl)prop-1-enyl)-6,7,8,9-tetrahydro-5H-imidazo[1,5-a][1,4]diazepine-1-carboxamide] the “+/− RCB2” value (rat CB2 receptor (rCB2)) was “+” and the EC50 [1] was > 10000 nM.

With `CC(C)CCNC(=O)c1nc(-c2ccc(Cl)cc2)n2c1CNCC2` [Compound 42, 3-(4-chlorophenyl)-N-isopentyl-5,6,7,8-tetrahydroimidazo[1,5-a]pyrazine-1-carboxamide] the “+/− RCB2” value (rat CB2 receptor (rCB2)) was “−” and the EC50 [1, 2] was > 10000 nM.

`C=C(C)c1nc(C(=O)N[C@H](C(=O)NC)C(C)(C)C)c2n1CCCN(C)C2` [Compound 441, (S)-N-(3,3-dimethyl-1-(methylamino)-1-oxobutan-2-yl)-8-methyl-3-(prop-1-en-2-yl)-6,7,8,9-tetrahydro-5H-imidazo[1,5-a][1,4]diazepine-1-carboxamide] was tested, and the “+/− RCB2” value (rat CB2 receptor (rCB2)) was “+” and the “+/− HCB1” value [1] was “+”.

With `CCN1CCCn2c(-c3ccccc3)nc(C(=O)N[C@H](C(=O)NC)C(C)(C)C)c2C1` [Compound 318, (S)-N-(3,3-dimethyl-1-(methylamino)-1-oxobutan-2-yl)-8-ethyl-3-phenyl-6,7,8,9-tetrahydro-5H-imidazo[1,5-a][1,4]diazepine-1-carboxamide] the “+/− RCB2” value (rat CB2 receptor (rCB2)) was “+” and the EC50 [1] was > 10000 nM.

`CN1CCn2c(-c3ccc(Cl)cc3F)nc(C(=O)N3CCC(n4cc(-c5ccccc5)[nH]c4=O)CC3)c2C1` [Compound 227, 1-(1-(3-(4-chloro-2-fluorophenyl)-7-methyl-5,6,7,8-tetrahydroimidazo[1,5-a]pyrazine-1-carbonyl)piperidin-4-yl)-4-phenyl-1H-imidazol-2(3H)-one] was tested, and the “+/− RCB2” value (rat CB2 receptor (rCB2)) was “−” and the EC50 [1, 2] was > 10000 nM.

In the case of `Cc1ccc(-c2nc(C(=O)N[C@H](c3nc(C)no3)C(C)(C)C)c3n2CCCNC3)c(F)c1` [Compound 520, (S)-N-(2,2-dimethyl-1-(3-methyl-1,2,4-oxadiazol-5-yl)propyl)-3-(2-fluoro-4-methylphenyl)-6,7,8,9-tetrahydro-5H-imidazo[1,5-a][1,4]diazepine-1-carboxamide], the “+/− RCB2” value (rat CB2 receptor (rCB2)) is reported as “−” and the EC50 [1] is reported as > 10000 nM.

`CN1CCCn2c(-c3ccc(F)c(Cl)c3)nc(C(=O)N[C@H](C(N)=O)C(C)(C)C)c2C1` [Compound 576, (S)-N-(1-amino-3,3-dimethyl-1-oxobutan-2-yl)-3-(3-chloro-4-fluorophenyl)-8-methyl-6,7,8,9-tetrahydro-5H-imidazo[1,5-a][1,4]diazepine-1-carboxamide] was tested, and the “+/− RCB2” value (rat CB2 receptor (rCB2)) was “+” and the “+/− HCB1” value [1] was “+”.

`CNC(=O)[C@@H](NC(=O)c1nc(-c2ccc(C3CC(=O)NN3)cc2)n2c1CN(C)CCC2)C(C)(C)C` (stereo partly drawn) [Compound 428, N-((S)-3,3-dimethyl-1-(methylamino)-1-oxobutan-2-yl)-8-methyl-3-(4-(5-oxopyrazolidin-3-yl)phenyl)-6,7,8,9-tetrahydro-5H-imidazo[1,5-a][1,4]diazepine-1-carboxamide] was tested, and the EC50 (rat CB2 receptor (rCB2)) was > 10 µM and the EC50 [1] was > 10000 nM.
